# Laboratory results taken from patent US20030186954A1, “Estriol to treat and prevent cardiovascular disease” (priority 2002, published 2003).
# Read-outs that look alike come from different tables or passages of the source.
# Tests used:
# [1] = Levels of estriol in saliva of human volunteers treated with skin cream; assay type: in vivo; settings: topical; for concentration at 24 h: human volunteers, 24 hours after second application, read-out: Salivary concentration of estriol (group average)
# Procedure: Four human volunteers applied one of three estriol skin cream formulations in a base of polyethylene glycol, sorbitol, and water. The formulations were as described above in Example 3, except that one formulation contained 0.1% estriol, a second formulation contained 0.5% estriol, and a third contained 1% estriol. Each volunteer applied […] of one of the formulations daily for 2 days for a total applied dosage of 4 mg, 20 mg, and 40 mg of estriol, respectively.
# Concentrations of estriol in saliva was measured 24 hours after the second application of the estriol cream formulations. The group that applied the 0.1% estriol averaged a salivary concentration of about 300 pg/ml. The 0.5% group averaged about 1500 pg/ml. The 1%group averaged about 4000 pg/ml.
# In addition, salivary concentration of estriol was measured ten minutes following the application of 20 mg of estriol in skin cream. A concentration of 10 ng/ml was found, indicating rapid absorption.
# [2] = Steroid levels in plasma and urine of estriol cream treated monkeys; settings: urine collected just prior to cardiac catheterization after 4 weeks daily 0.3% estriol topical cream; n = 5
# [3] = test system: coronary arteries of ovariectomized female rhesus monkeys (serotonin + U46619 induced vasospasm); assay: Drug-induced (serotonin + U46619) coronary vasospasm in ovariectomized rhesus monkeys, angiography; assay type: in vivo, rhesus monkeys (Macaca mulatta); settings: for Monkeys suffering a vasospasm during the study: estriol cream treated ovariectomized monkeys, 12 step intracoronary serotonin+U46619 injection protocol
# Procedure: The monkeys were entered into the study no less than 3 months after ovariectomy.
# Angiography at the Dotter Institute, after overnight fasting, began with preanesthesia with ketamine (10 mg/kg body weight intramuscular), intubation with an endotracheal tube and a light surgical plane of anesthesia with isoflurane (induced at 1.5% to 3% maintained at 0.75% to 1.25%), vaporized with 33% nitrous oxide and 67% oxygen, or with 100% oxygen. Bilateral femoral intraarterial 3F catheters allowed for coronary catheterization and continuous recording of systemic arterial blood pressure and heart rate, which were maintained close to the initial anesthetic value for each monkey. Intravenous heparin (1,000 U) was injected, and up to 120 ml of pyruvated Ringer's solution and 0 to 50 ml of dextran solution were used (as needed) to maintain diastolic blood pressure ≧60 mm Hg. A heating pad assisted in maintenance of a body temperature decrease ≦2° C. of preanesthesia body temperature (monitored by rectal thermometer). An electrocardiogram (ECG) recorded on a Gould eight-channel recorder, cutaneous arterial oxygen saturation, respiratory rate and end-tidal CO2 were also monitored.
# Entire experiments were recorded on videotape (with episodic fluoroscopic imaging and continuous voice annotation) to permit computerized quantitative coronary angiography. […]
# Placement of the 3F catheter (except as noted later) was adjusted to provide sufficient filling with radio-opaque contrast medium, limited reflux and isolation of a branch of the coronary arterial tree. […] Fluoroscopic images were recorded on film using an OEC model 9800 digital x-ray system with fluoroscopic C-arm, digitally recorded, and evaluated in subsequent analysis. All procedures including a brief 0.2 ml injection of Hexabrix for optimal quantitative angiography were recorded on videotape for subsequent computer analysis. […]
# After 4 weeks of daily treatment with 0.2 mg/kg of the estriol topical cream, the monkeys were studied by coronary catheterization, and reactivity was assessed by injection of serotonin (100 μM) and U46619 (1 μM).
structure (smiles),measurement,setting,value
C[C@]12CC[C@@H]3c4ccc(O)cc4CC[C@H]3[C@@H]1C[C@@H](O)[C@@H]2O [Estriol],concentration at 24 h,"[1]; 0.1% estriol skin cream, 4 ml daily for 2 days (4 mg)",~0.3 ng/mL
same,concentration at 24 h,"[1]; 0.5% estriol skin cream, 4 ml daily for 2 days (20 mg)",~1.5 ng/mL
same,concentration at 24 h,"[1]; 1% estriol skin cream, 4 ml daily for 2 days (40 mg)",~4 ng/mL
same,concentration at 10 min,"[1]; human, ten minutes following application of 20 mg of estriol in skin cream, read-out: Salivary concentration of estriol",10 ng/mL
same,"E3 absorbed, urine (total)",[2],***2412 +/− 316 (n = 5) ng/ml
same,Monkeys suffering a vasospasm during the study,[3],None of the monkeys
same,Monkeys suffering a vasospasm during the study,[3]; listed as E3,none of the E3 treated monkeys showed a vasospasm
same,Vasospasm criteria met (incidence),"[3]; ovariectomized monkeys, 4 weeks daily 0.3% estriol topical cream (0.2 mg/kg), intracoronary serotonin 100 μM + U46619 1 μM, criteria <33% of control diameter for >5 minutes",0/6
